What was measured:
Type in all cases: in vivo
[1] = test system: yellow nutsedge (Cyperus esculentus); experiment: Test C preemergence; settings: Cyperus, pre-emergence, 336 h, scale 0 to 100, read-out: Plant response rating, Nutsedge, Yellow
Source text: (§1) Seeds of plant species selected from blackgrass (Alopecurus myosuroides), Italian ryegrass (Lolium multiflorum), winter wheat (Triticum aestivum), galium (catchweed bedstraw, Galium aparine), corn (Zea mays), large (Lg) crabgrass (Digitaria sanguinalis), giant foxtail (Setaria faberii), johnsongrass (Sorghum halepense), lambsquarters (Chenopodium album), morningglory (Ipomoea coccinea), yellow nutsedge (Cyperus esculentus), pigweed (Amaranthus retroflexus), ragweed (common ragweed, Ambrosia elatior), soybean (Glycine max), barnyardgrass (Echinochloa crus-galli), oilseed rape (Brassica napus), waterhemp (common waterhemp, Amaranthus rudis), and velvetleaf (Abutilon theophrasti) were planted into a blend of loam soil and sand and treated preemergence with test chemicals formulated in a non-phytotoxic solvent mixture which included a surfactant.
(§2) At the same time, plants selected from these crop and weed species and also chickweed (common chickweed, Stellaria media), kochia (Kochia scoparia), and wild oat (Avena fatua), were planted in pots containing Redi-Earth® planting medium (Scotts Company, 14111 Scottslawn Road, Marysville, Ohio 43041) comprising spaghnum peat moss, vermiculite, wetting agent and starter nutrients and treated with postemergence applications of test chemicals formulated in the same manner. Plants ranged in height from 2 to 18 cm (1- to 4-leaf stage) for postemergence treatments. Treated plants and controls were maintained in a greenhouse for 13 to 15 days, after which time all species were compared to controls and visually evaluated. Plant response ratings, summarized in Table C, are based on a scale of 0 to 100 where 0 is no effect and 100 is complete control. A dash (-) response means no test result.

[2] = test system: blackgrass (Alopecurus myosuroides); experiment: Test C preemergence; settings: Alopecurus myosuroides, pre-emergence, 336 h, scale 0 to 100, read-out: Plant response rating, Blackgrass
Source text: as §1, §2

[3] = test system: oilseed rape (Brassica napus); experiment: Test C preemergence; settings: Brassica napus, pre-emergence, scale 0 to 100, read-out: Plant response rating, Oilseed Rape
Source text: as §1, §2

[4] = test system: johnsongrass (Sorghum halepense); experiment: Test C postemergence; settings: Sorghum halepense, post-emergence, 336 h, Postemergence, scale 0 to 100, read-out: Plant response rating, Johnsongrass
[5] = test system: yellow nutsedge (Cyperus esculentus); experiment: Test C postemergence; settings: Cyperus, post-emergence, 336 h, Postemergence, scale 0 to 100, read-out: Plant response rating, Nutsedge, Yellow
[6] = test system: velvetleaf (Abutilon theophrasti); experiment: Test C postemergence; settings: Abutilon theophrasti, post-emergence, Postemergence, scale 0 to 100, read-out: Plant response rating, Velvetleaf
[7] = test system: ragweed (common ragweed, Ambrosia elatior); experiment: Test C postemergence; settings: Ambrosia artemisiifolia, post-emergence, 336 h, Postemergence, scale 0 to 100, read-out: Plant response rating, Ragweed
[8] = test system: kochia (Kochia scoparia); experiment: Test C postemergence; settings: Bassia scoparia, post-emergence, Postemergence, scale 0 to 100, read-out: Plant response rating, Kochia
[9] = test system: corn (Zea mays); experiment: Test C postemergence; settings: Zea mays, post-emergence, 336 h, Postemergence, scale 0 to 100
[10] = test system: large (Lg) crabgrass (Digitaria sanguinalis); experiment: Test C postemergence; settings: Digitaria sanguinalis, post-emergence, 336 h, Postemergence, scale 0 to 100, read-out: Plant response rating, Crabgrass, Large
[11] = test system: barnyardgrass (Echinochloa crus-galli); experiment: Test C postemergence; settings: Echinochloa crus-galli, post-emergence, Postemergence, scale 0 to 100, read-out: Plant response rating, Barnyardgrass
[12] = test system: winter wheat (Triticum aestivum); experiment: Test C postemergence; settings: Triticum aestivum, post-emergence, 336 h, Postemergence, scale 0 to 100, read-out: Plant response rating, Wheat
[13] = test system: giant foxtail (Setaria faberii); experiment: Test C postemergence; settings: Setaria faberi, post-emergence, 336 h, Postemergence, scale 0 to 100, read-out: Plant response rating, Foxtail, Giant
[14] = test system: chickweed (common chickweed, Stellaria media); experiment: Test C postemergence; settings: Stellaria media, post-emergence, Postemergence, scale 0 to 100, read-out: Plant response rating, Chickweed
[15] = test system: blackgrass (Alopecurus myosuroides); experiment: Test C postemergence; settings: Alopecurus myosuroides, post-emergence, 336 h, Postemergence, scale 0 to 100, read-out: Plant response rating, Blackgrass
[16] = test system: lambsquarters (Chenopodium album); experiment: Test C postemergence; settings: Chenopodium album, post-emergence, 336 h, Postemergence, scale 0 to 100, read-out: Plant response rating, Lambsquarters
[17] = test system: Italian ryegrass (Lolium multiflorum); experiment: Test C postemergence; settings: Lolium multiflorum, post-emergence, 336 h, Postemergence, scale 0 to 100, read-out: Plant response rating, Ryegrass, Italian
[18] = test system: wild oat (Avena fatua); experiment: Test C postemergence; settings: Avena fatua, post-emergence, Postemergence, scale 0 to 100, read-out: Plant response rating, Oat, Wild
[19] = test system: galium (catchweed bedstraw, Galium aparine); experiment: Test C postemergence; settings: Galium, post-emergence, 336 h, Postemergence, scale 0 to 100, read-out: Plant response rating, Galium
[20] = test system: morningglory (Ipomoea coccinea); experiment: Test C postemergence; settings: Ipomoea, post-emergence, 336 h, Postemergence, scale 0 to 100, read-out: Plant response rating, Morningglory
[21] = test system: soybean (Glycine max); experiment: Test C postemergence; settings: Glycine max, post-emergence, Postemergence, scale 0 to 100, read-out: Plant response rating, Soybean
[22] = test system: oilseed rape (Brassica napus); experiment: Test C postemergence; settings: Brassica napus, post-emergence, Postemergence, scale 0 to 100, read-out: Plant response rating, Oilseed Rape

SMILES: Fc1cccc(Oc2ncc(Cl)cn2)c1Oc1ncc(C(F)(F)F)cn1 [Compound 43, 5-chloro-2-[5-fluoro-6-[[5-(trifluoromethyl)-2-pyrimidinyl]oxy]phenoxy]pyrimidine]
- pest or weed control at 31 g/ha ([1]; 31 g ai/ha, preemergence): 0%
- pest or weed control at 62 g/ha ([1]; 62 g ai/ha, preemergence): 35%
- pest or weed control at 125 g/ha ([1]; 125 g ai/ha, preemergence): 60%
- pest or weed control at 16 g/ha ([1]; Preemergence, 16 g ai/ha): 100%
- pest or weed control at 31 g/ha ([2]; 31 g ai/ha, preemergence): 50%
- pest or weed control at 62 g/ha ([2]; 62 g ai/ha, preemergence): 90%
- pest or weed control at 125 g/ha ([2]; 125 g ai/ha, preemergence): 95%
- pest or weed control at 16 g/ha ([2]; Preemergence, 16 g ai/ha): 40%
- plant injury at 31 g/ha ([3]; 31 g ai/ha, preemergence): 100%
- plant injury at 62 g/ha ([3]; 62 g ai/ha, preemergence): 100%
- plant injury at 125 g/ha ([3]; 125 g ai/ha, preemergence): 100%
- plant injury at 16 g/ha ([3]; Preemergence, 16 g ai/ha): 95%
- pest or weed control at 16 g/ha ([4]; 16 g ai/ha): 0%
- pest or weed control at 31 g/ha ([4]; 31 g ai/ha): 5%
- pest or weed control at 62 g/ha ([4]; 62 g ai/ha): 10%
- pest or weed control at 125 g/ha ([4]; 125 g ai/ha): 45%
- pest or weed control at 31 g/ha ([5]; 31 g ai/ha): 0%
- pest or weed control at 62 g/ha ([5]; 62 g ai/ha): 0%
- pest or weed control at 125 g/ha ([5]; 125 g ai/ha): 5%
- pest or weed control at 31 g/ha ([6]; 31 g ai/ha): 55%
- pest or weed control at 62 g/ha ([6]; 62 g ai/ha): 75%
- pest or weed control at 125 g/ha ([6]; 125 g ai/ha): 85%
- pest or weed control at 31 g/ha ([7]; 31 g ai/ha): 75%
- pest or weed control at 62 g/ha ([7]; 62 g ai/ha): 65%
- pest or weed control at 125 g/ha ([7]; 125 g ai/ha): 80%
- pest or weed control at 16 g/ha ([8]; 16 g ai/ha): 90%
- pest or weed control at 31 g/ha ([8]; 31 g ai/ha): 95%
- pest or weed control at 62 g/ha ([8]; 62 g ai/ha): 100%
- pest or weed control at 125 g/ha ([8]; 125 g ai/ha): 100%
- Corn plant response rating (crop injury, 0 = no effect, 100 = complete kill) at 16 g/ha ([9]; 16 g ai/ha): 5%
- Corn plant response rating (crop injury, 0 = no effect, 100 = complete kill) at 31 g/ha ([9]; 31 g ai/ha): 5%
- Corn plant response rating (crop injury, 0 = no effect, 100 = complete kill) at 62 g/ha ([9]; 62 g ai/ha): 5%
- Corn plant response rating (crop injury, 0 = no effect, 100 = complete kill) at 125 g/ha ([9]; 125 g ai/ha): 5%
- pest or weed control at 16 g/ha ([10]; 16 g ai/ha): 5%
- pest or weed control at 31 g/ha ([10]; 31 g ai/ha): 5%
- pest or weed control at 62 g/ha ([10]; 62 g ai/ha): 10%
- pest or weed control at 125 g/ha ([10]; 125 g ai/ha): 40%
- pest or weed control at 16 g/ha ([11]; 16 g ai/ha): 5%
- pest or weed control at 31 g/ha ([11]; 31 g ai/ha): 5%
- pest or weed control at 62 g/ha ([11]; 62 g ai/ha): 10%
- pest or weed control at 125 g/ha ([11]; 125 g ai/ha): 35%
- plant injury at 31 g/ha ([12]; 31 g ai/ha): 0%
- plant injury at 62 g/ha ([12]; 62 g ai/ha): 0%
- plant injury at 125 g/ha ([12]; 125 g ai/ha): 5%
- pest or weed control at 16 g/ha ([13]; 16 g ai/ha): 5%
- pest or weed control at 31 g/ha ([13]; 31 g ai/ha): 5%
- pest or weed control at 62 g/ha ([13]; 62 g ai/ha): 15%
- pest or weed control at 125 g/ha ([13]; 125 g ai/ha): 35%
- pest or weed control at 16 g/ha ([14]; 16 g ai/ha): 40%
- pest or weed control at 31 g/ha ([14]; 31 g ai/ha): 70%
- pest or weed control at 62 g/ha ([14]; 62 g ai/ha): 70%
- pest or weed control at 125 g/ha ([14]; 125 g ai/ha): 100%
- pest or weed control at 16 g/ha ([15]; 16 g ai/ha): 0%
- pest or weed control at 31 g/ha ([15]; 31 g ai/ha): 30%
- pest or weed control at 62 g/ha ([15]; 62 g ai/ha): 75%
- pest or weed control at 125 g/ha ([15]; 125 g ai/ha): 95%
- pest or weed control at 16 g/ha ([16]; 16 g ai/ha): 60%
- pest or weed control at 31 g/ha ([16]; 31 g ai/ha): 80%
- pest or weed control at 62 g/ha ([16]; 62 g ai/ha): 90%
- pest or weed control at 125 g/ha ([16]; 125 g ai/ha): 95%
- pest or weed control at 31 g/ha ([17]; 31 g ai/ha): 0%
- pest or weed control at 62 g/ha ([17]; 62 g ai/ha): 10%
- pest or weed control at 125 g/ha ([17]; 125 g ai/ha): 15%
- pest or weed control at 31 g/ha ([18]; 31 g ai/ha): 5%
- pest or weed control at 62 g/ha ([18]; 62 g ai/ha): 20%
- pest or weed control at 125 g/ha ([18]; 125 g ai/ha): 60%
- pest or weed control at 16 g/ha ([19]; 16 g ai/ha): 35%
- pest or weed control at 31 g/ha ([19]; 31 g ai/ha): 80%
- pest or weed control at 62 g/ha ([19]; 62 g ai/ha): 85%
- pest or weed control at 125 g/ha ([19]; 125 g ai/ha): 90%
- pest or weed control at 31 g/ha ([20]; 31 g ai/ha): 85%
- pest or weed control at 62 g/ha ([20]; 62 g ai/ha): 80%
- pest or weed control at 125 g/ha ([20]; 125 g ai/ha): 80%
- plant injury at 31 g/ha ([21]; 31 g ai/ha): 55%
- plant injury at 62 g/ha ([21]; 62 g ai/ha): 75%
- plant injury at 125 g/ha ([21]; 125 g ai/ha): 70%
- plant injury at 31 g/ha ([22]; 31 g ai/ha): 50%
- plant injury at 62 g/ha ([22]; 62 g ai/ha): 65%
- plant injury at 125 g/ha ([22]; 125 g ai/ha): 50%

Source: patent US20170190671A1, “BIS(ARYL)CATECHOL DERIVATIVES AS HERBICIDES” (E I DU PONT DE NEMOURS AND COMPANY, priority 2014, published 2017)
